≈ marks a conversion by molar mass, not a printed value.
Key:
Anas platyrhynchos = settings: acute; oral; unspecified; mortality
Oncorhynchus mykiss = settings: for LC50: acute, duration: 96 hours, mortality
Oryctolagus sp. = settings: developmental; development
Folsomia candida = settings: chronic/long-term; mortality
Hypoaspis aculeifer = settings: chronic/long-term; mortality
Tagia sp. = settings: chronic/long-term; growth
Daphnia magna = settings: chronic/long-term; duration: 21 days; reproduction
Apis mellifera = settings: acute, duration: 48 hours, mortality

Row | SMILES | LD50 (Anas platyrhynchos) [mg/kg-day] | LC50 (Oncorhynchus mykiss) [µg/mL] | NOEC (Oncorhynchus mykiss; chronic/long-term, duration: 95 days, other) [mg/L] | NOAEL (Oryctolagus sp.) [mg/kg-day] | LC50 (Rattus norvegicus; acute, oral, mortality) [mg/kg-day] | NOAEL (Rattus norvegicus; chronic, body weight) [mg/kg-day] | NOAEL (Rattus norvegicus; reproduction developmental, body weight) [mg/kg-day] | NOEC (Folsomia candida) [mg/kg] | NOEC (Hypoaspis aculeifer) [mg/kg] | NOEC (Tagia sp.) [mg/kg] | NOEC (Daphnia magna) [mg/L] | LD50 (Apis mellifera; dermal) [µg/piece] | LD50 (Apis mellifera; oral, unspecified) [µg/piece] | LD50 (Colinus virginianus; acute, oral, mortality) [mg/kg-day] | NOEL (Colinus virginianus; chronic) [mg/kg-day] | LD50 (Rattus norvegicus; acute, oral, mortality) [mg/kg-day] | NOAEL (Rattus norvegicus; short-term, duration: 28 days) [mg/kg-day] | NOAEL (Rattus norvegicus; short-term, duration: 28 days, clinical chemistry) [mg/kg-day]
1 | CO/N=C(/C(=O)OC)c1ccccc1CO/N=C(\C)c1cccc(C(F)(F)F)c1 [Trifloxystrobin] | > 2250 | 0.015 (≈ 0.0367 µM) | 0.0043 | 50 | > 5000 | 10 | 10 | 249 | 249 | 3.5 | 0.00276 | > 100 | > 110 | > 2000 | 31 |  |  | 
2 | CO/N=C(/C(=O)O)c1ccccc1CO/N=C(/C(=O)O)c1cccc(C(F)(F)F)c1 |  | > 100 |  |  |  |  |  | 100 |  | 100 |  |  |  |  |  | > 2000 | > 1000 | 
3 | CO/N=C(/C(=O)O)c1ccccc1CO/N=C(\C(=O)O)c1cccc(C(F)(F)F)c1 |  | > 100 |  |  |  |  |  | 10 | 100 | 100 |  |  |  |  |  | > 2000 |  | 150
